This experiment has as its system multi-drug resistant M. tuberculosis (Peru isolate). As to the kind of experiment: microbe, parasite or virus in culture. The class given is cell-based. Conditions: Mycobacterium tuberculosis, 240 h, read-out: MIC, MDR-TB Peru isolate.

As for `CO[C@H]1/C=C/O[C@@]2(C)Oc3c(C)c(O)c4c(O)c(c(/C=N/N5CCN(C)CC5)c(O)c4c3C2=O)NC(=O)/C(C)=C\C=C\[C@H](C)[C@H](O)[C@@H](C)[C@@H](O)[C@@H](C)[C@H](OC(C)=O)[C@@H]1C` [Rifampicin], the MIC was more than 4 µg/mL.

As for `NNC(=O)c1ccncc1` [Isoniazid], the MIC was more than 4 µg/mL.

For the origin of these results see US12171734B2, “Pathogenic bacteria” (Sporegen Limited, priority 2018, dated 2024).
